Where two headings read alike, the source gives them in different places.
Experiments:
T. cruzi epimastigotes = test: Trypanocidal activity against T. cruzi epimastigotes (XTT); type: cell-based, Trypanosoma cruzi; details: for IC50: read-out: T. cruzi IC50; for selectivity ratio at 72 h: mouse (RAW 264.7 cells) / Trypanosoma cruzi (epimastigotes), read-out: T. cruzi SI (selectivity index, cytotoxicity/anti-protozoal activity)
Description: Trypanocidal activity was determined according to Muelas-Serrano with some modifications. […] Benznidazol (3.1–100 μg/mL) was used as the control drug. Assays were performed in triplicates.

[1] = system: L. brasiliensis promastigotes; test: Leishmanicidal activity against L. brasiliensis promastigotes (XTT); details: for IC50: read-out: L. brasiliensis IC50
Description: (§1) Evaluations against Leishmania parasites: Promastigotes of Leishmania-Leishmania: L. amazonensis, Clone 1, NHOM-BR-76-LTB-012 (Lma, donated by the Paul Sabatier Université, France) and Leishmania-Viannia: L. braziliensis M2904 C192 RJA (M2904, donated by Dr. Jorge Arévalo from Universidad Peruana Cayetano Heredia, Peru). All strains were cultured in Schneider’s insect medium, (pH 6.2) supplemented with 10% FBS and incubated at 26 °C. Medium changes were made every 72 h to maintain a viable parasitic population. Leishmanicidal activity was determined according to Williams with some modifications. Samples were dissolved in DMSO (maximum final concentration 1%) at 10 mg/mL. Promastigotes in logarithmic phase of growth, at the concentration 3 × 10^6 parasites/mL, were distributed (100 μL/well) in 96-well flat bottom microtiter plates. Samples with different concentrations (3.1–100 μg/mL) were added (100 μL). […] Assays were performed in triplicates. The microwell plates were incubated for 72 h at 26 °C. After incubation, a solution of XTT (1 mg/mL) in PBS (pH 7.0 at 37 °C) with PMS (0.06 mg/mL) was added (50 μL/well), and incubated for 3 h at 26 °C. The optical density of each well was measured and the IC50 values calculated.

[2] = system: L. amazoniensis promastigotes; test: Leishmanicidal activity against L. amazoniensis promastigotes (XTT); details: for IC50: read-out: L. amazoniensis IC50
Description: as §1, with “All” for “Evaluations against Leishmania parasites: Promastigotes of Leishmania-Leishmania: L. amazonensis, Clone 1, NHOM-BR-76-LTB-012 (Lma, donated by the Paul Sabatier Université, France) and Leishmania-Viannia: L. braziliensis M2904 C192 RJA (M2904, donated by Dr. Jorge Arévalo from Universidad Peruana Cayetano Heredia, Peru). All”

[3] = system: Raw 264.7 murine macrophage cell line; test: Cytotoxicity in RAW cells (Resazurin); type: cell-based; details: RAW cells, 72 h at 37 °C, Resazurin, triplicate
Description: (§2) Evaluations against RAW cells: The Raw 264.7 murine macrophage cell line was purchased from the American Type Culture Collection (ATCC-TIB71). The cells were maintained in DMEM-HG medium supplemented with 10% fetal bovine serum, 100 U/mL of penicillin and 100 μg/mL of streptomycin, and sodium bicarbonate (2.2 g/L) in humidified atmosphere at 37 °C with 5% CO2. Samples were prepared as described above and added (in 100 μL DMSO) at different concentrations (6.2–200 μg/mL). Medium blank, control drugs and cell growth controls were included to evaluate cell viability. The plates were incubated for 72 h at 37 °C with 5% CO2. After incubation for the indicated time, the cells were washed, after which 10 μL of Resazurin reagent (2.0 mM) was added. They were further incubated at 37 °C for 3 h in a humidified incubator. The IC50 values were assessed using a fluorometric reader (540 nm excitation, 590 nm emission) and the Gen5 software. All assays were performed in triplicate.

[4] = Cytotoxicity in RAW cells (Resazurin); type: cell-based, murine; details: mouse
Description: as §2

[5] = system: promastigotes of L. mexicana; set-up: method as in doi:10.1016/j.phytol.2009.10.002; details: not part of this investigation; cited from earlier work
[6] = promastigotes, 72 h at 26 °C, XTT, triplicates
[7] = Trypanosoma cruzi, epimastigotes, 72 h at 26 °C, XTT, triplicates
[8] = L. brasiliensis SI (selectivity index, cytotoxicity/anti-protozoal activity), RAW cell IC50 / L. brasiliensis IC50
[9] = L. amazoniensis SI (selectivity index, cytotoxicity/anti-protozoal activity), RAW cell IC50 / L. amazoniensis IC50
[10] = RAW cells, 72 h at 37 °C, Resazurin, triplicate, read-out: Cytotoxicity IC50

| Compound | T. cruzi SI (selectivity index, cytotoxicity/anti-protozoal activity) (T. cruzi epimastigotes; RAW cell IC50 / T. cruzi IC50) | IC50 (T. cruzi epimastigotes; epimastigotes, 72 h at 26 °C, XTT, triplicates) | L. brasiliensis SI (selectivity index, cytotoxicity/anti-protozoal activity) ([1]; RAW cell IC50 / L. brasiliensis IC50) | IC50 [1, 6] | L. amazoniensis SI (selectivity index, cytotoxicity/anti-protozoal activity) ([2]; RAW cell IC50 / L. amazoniensis IC50) | IC50 [2, 6] | IC50 [3] | IC50 (T. cruzi epimastigotes; [7]) | selectivity ratio at 72 h (T. cruzi epimastigotes; RAW cell IC50 / T. cruzi IC50) | IC50 ([1]; 72 h) | selectivity ratio at 72 h [1, 8] | selectivity ratio at 72 h [2, 9] | IC50 ([2]; Leishmania amazonensis, 72 h) | IC50 at 72 h [4] | IC50 (T. cruzi epimastigotes; Trypanosoma cruzi, 72 h) | selectivity ratio at 72 h [1] | selectivity ratio at 72 h [2] | IC50 at 72 h [4, 10] | IC50 [5] |
| --- | --- | --- | --- | --- | --- | --- | --- | --- | --- | --- | --- | --- | --- | --- | --- | --- | --- | --- | --- |
| 2-Methoxy-6,6-dimethyl-9-(((4-methoxypentyl)oxy)methyl)-6H-benzo[c]chromene [3e] | 3.5 | 9 ± 0.6 µM | 0.3 | 127 ± 11.3 µM | 1.1 | 28.2 ± 8.5 µM | 31.6 ± 5.6 µM |  |  |  |  |  |  |  |  |  |  |  |  |
| COC(=O)c1ccc2c(c1)-c1cc(OC)ccc1OC2(C)C [5d, Methyl 2-Methoxy-6,6-dimethyl-6H-benzo[c]chromene-9-carboxylate] |  |  |  |  |  |  |  | 31.8 ± 2.4 µM | 1.2 | 18.4 ± 5.7 µM | 2.1 | 0.7 | 59 ± 1.3 µM | 38.2 ± 2.7 µM |  |  |  |  |  |
| COc1ccc2c(c1)-c1cc(CCl)ccc1C(C)(C)O2 [3b, 9-(chloromethyl)-2-methoxy-6,6-dimethyl-6H-benzo[c]chromene] |  |  |  |  |  |  |  | 38.1 ± 0.4 µM | 1.6 | 17.1 ± 0.1 µM | 3.5 | 1.7 | 35 ± 2.8 µM | 59.2 ± 14.5 µM |  |  |  |  |  |
| COc1ccc2c(c1)-c1cc(COC(=O)CC(C)(C)C)ccc1C(C)(C)O2 [4f, (2-Methoxy-6,6-dimethyl-6H-benzo[c]chromen-9-yl)methyl 3,3-dimethylbutanoate] |  |  |  |  |  |  |  | 5.7 ± 0.3 µM | 3.3 | 20 ± 4.2 µM | 1 | 1 | 19.5 ± 0.8 µM | 19 ± 3 µM |  |  |  |  |  |
| COc1ccc2c(c1)-c1cc(CO)ccc1C(C)(C)O2 [compound 1, (2-methoxy-6,6-dimethyl-6H-benzo[c]chromen-9-yl)methanol] |  |  |  |  |  |  |  |  | 1.7 | 59.2 ± 11.8 µM |  |  | 77.7 ± 5.6 µM |  | 18.5 ± 9.6 µM | 0.5 | 0.4 | 30.7 ± 1.1 µM | 17 µM |
| COCc1ccc2c(c1)-c1cc(OC)ccc1OC2(C)C [3c, 2-Methoxy-9-(methoxymethyl)-6,6-dimethyl-6H-benzo[c]chromene] |  |  |  |  |  |  |  | 24.6 ± 3.5 µM | 1.3 | 49.2 ± 15.8 µM | 0.7 | 0.6 | 56.3 ± 12 µM | 33.1 ± 2.1 µM |  |  |  |  |  |
| COc1ccc2c(c1)-c1cc(COC(=O)C(C)C)ccc1C(C)(C)O2 [4b, (2-Methoxy-6,6-dimethyl-6H-benzo[c]chromen-9-yl)methyl isobutyrate] |  |  |  |  |  |  |  | 8.8 ± 0.9 µM | 3 | 17.6 ± 0.9 µM | 1.5 | 1 | 26.7 ± 2.4 µM | 26.4 ± 5.9 µM |  |  |  |  |  |
| COc1ccc2c(c1)-c1cc(COC(=O)c3ccccc3)ccc1C(C)(C)O2 [4l, (2-Methoxy-6,6-dimethyl-6H-benzo[c]chromen-9-yl)methyl benzoate] |  |  |  |  |  |  |  | 5.9 ± 0.5 µM | 4.7 | 21 ± 4.3 µM | 1.3 | 1.3 | 21.9 ± 7.7 µM | 27.8 ± 10.7 µM |  |  |  |  |  |
| COc1ccc2c(c1)-c1cc(COC(=O)C(C)(C)C)ccc1C(C)(C)O2 [4c, (2-Methoxy-6,6-dimethyl-6H-benzo[c]chromen-9-yl)methyl pivalate] |  |  |  |  |  |  |  | 6.4 ± 0.1 µM | 3 | 17.4 ± 1.7 µM |  |  | 20.5 ± 0.6 µM |  |  | 1.1 | 1 | 19.8 ± 0.9 µM |  |
